Assay results reported in patent US20260116884A1, “PROTAC CHIMERIC COMPOUND, PREPARATION METHOD THEREFOR AND USE THEREOF” (HANGZHOU ZHONGMEIHUADONG PHARMACEUTICAL CO., LTD., priority 2022, published 2026).
Read-outs that look alike come from different tables or passages of the source.

Experiments:
human HPK1 [1] = biological target: T1, human HPK1 (Homo sapiens, UniProt Q92918); assay: Assay of in vitro HPK1 enzymatic activity (ADP-Glo); assay type: biochemical; conditions: 7 nM kinase, 20 uM ATP
T1 sequence (Q92918 whole entry): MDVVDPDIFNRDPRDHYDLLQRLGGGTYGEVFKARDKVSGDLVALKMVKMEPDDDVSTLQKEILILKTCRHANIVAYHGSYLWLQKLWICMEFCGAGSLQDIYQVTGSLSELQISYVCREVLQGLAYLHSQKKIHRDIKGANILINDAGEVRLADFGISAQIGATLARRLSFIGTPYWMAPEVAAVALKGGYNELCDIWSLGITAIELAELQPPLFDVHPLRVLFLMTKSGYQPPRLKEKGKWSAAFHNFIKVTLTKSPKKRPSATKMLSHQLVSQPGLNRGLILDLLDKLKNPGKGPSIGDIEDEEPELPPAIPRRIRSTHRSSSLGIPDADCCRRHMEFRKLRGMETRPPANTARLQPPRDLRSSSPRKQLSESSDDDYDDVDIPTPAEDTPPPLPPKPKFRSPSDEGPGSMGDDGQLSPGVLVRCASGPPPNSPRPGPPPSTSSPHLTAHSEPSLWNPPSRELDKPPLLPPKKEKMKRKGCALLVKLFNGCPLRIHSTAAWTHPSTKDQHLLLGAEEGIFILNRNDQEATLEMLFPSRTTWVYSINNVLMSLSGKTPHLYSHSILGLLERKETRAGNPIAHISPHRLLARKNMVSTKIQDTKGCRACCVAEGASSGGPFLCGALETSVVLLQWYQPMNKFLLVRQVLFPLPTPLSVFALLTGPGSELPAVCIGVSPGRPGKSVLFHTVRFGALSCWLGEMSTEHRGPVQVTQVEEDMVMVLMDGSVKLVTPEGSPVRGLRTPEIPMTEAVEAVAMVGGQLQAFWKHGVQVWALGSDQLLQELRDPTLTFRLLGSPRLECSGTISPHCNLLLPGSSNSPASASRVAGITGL
Experimental: Compounds were evaluated for their ability to inhibit human HPK1 by IC50 determination using the ADP-Glo method to measure the kinase activity.
Buffer conditions of the enzyme: 50 mM Hepes (pH 7.5), 10 mM MgCl2, 1 mM EGTA, 0.01% Brij35, 2 mM DTT.
Preparation of the Kinase and substrate mixture: the working concentration of the kinase in the HPK1 reaction solution was 7 nM and the working concentration of ATP was 20 uM.
The compound was diluted with DMSO in a dilution plate, with a maximum starting concentration of 1 uM and 10 concentration gradient points (4-fold dilution).
Each of the above 10 concentration gradient points of the compound was then diluted 50-fold into the kinase reaction buffer and shaken on a shaker for 20 min. The kinase was prepared in an enzyme reaction buffer and 2 μl of the HPK1 kinase was added per well of the reaction plate at a HPK1 kinase concentration of 7 nM.
1 μl of diluted compound in the buffer was added per well, and the plate was sealed with a plate sealing film, centrifuged at 1000 g for 30 seconds, and left at room temperature for 10 minutes. An ATP solution was prepared with an enzyme reaction buffer and 2 μl of the ATP solution was added to the reaction plate (the working concentration of ATP was 20 uM). The plate was sealed with a plate sealing film, centrifuged at 1000 g for 30 seconds, and reacted at room temperature for 60 minutes. 4 μL of ADP-Glu was transferred to a 384 reaction plate, centrifuged at 1000 rpm/min for 1 min, and incubated at 25° C. for 40 min. 8 μL of the Detection solution was transferred to a 384 reaction plate, centrifuged at 1000 rpm/min for 1 min, and incubated at 25° C. for 40 min. The RLU (Relative luminescence unit) signal was read using a BMG microplate reader, and the signal intensity was used to characterize the activity level of the kinase.
The kinase activity data was expressed by comparing the kinase activity of the test compound and the blank group (containing only DMSO), and the IC50 value was obtained by curve fitting using the Prism software (GraphPad7.0).

[2] = Pharmacokinetics of single administration in mice; assay type: in vivo, Balb/c mice; design: Vz: unit not given here
Experimental: Female Balb/c mice (weighing 18-22 g) were fasted overnight prior to the experiment. The test compound was dissolved in the vehicle, DMSO:PEG400:30% captisol:HCl=5:20:70:5 (v/v/v/v), and administered by single oral gavage at a dose of 10 mg/kg or by intravenous injection at a dose of 2 mg/kg. Blood samples were collected from the orbital venous plexus at 15 minutes, 30 minutes, and 1, 2, 4, 6, 8, and 24 h after administration. Approximately 0.08 mL of blood was collected at each time point and placed in a 1.5 mL centrifuge tube containing EDTA-2K anticoagulant. Blood samples were centrifuged (3200 g, 10 min, 4° C.) within 2 h to obtain plasma samples. Plasma samples were frozen at −70° C. to −80° C. in an ultra-low temperature freezer prior to processing. Before sample processing, the plasma samples were taken out of the freezer. After thawing at room temperature, 20 μL of each plasma sample was added into a 96-well plate, and then 120 μL of acetonitrile containing an internal standard was added to precipitate proteins. […] The supernatant was taken and mixed with an equal volume of 0.1% aqueous formic acid solution for LC-MS/MS analysis.

human HPK1 [3] = biological target: T1, human HPK1; assay: HPK1 protein degradation assay (WB) in RAMOS cell line; assay type: cell-based; design: The RAMOS cell line was selected as the degradation cell line; endogenous in cells; host or cells: RAMOS; conditions: RAMOS cells, 16 h, Western blot
Experimental: Degradation of HPK1 proteins and DC50/Dmax were determined by the WB method in order to evaluate the in vitro degradative ability of the compound.
The RAMOS cell line was selected as the degradation cell line. Incubation Conditions: RMPI 1640 culture medium supplemented with 10% FBS, 37° C., 5% CO2.
• (1) Plating cells: in a 6 cm dish with 4 ml of the culture medium, cells plated at 2×10^6 cells/dish. • (2) Drug addition: the compound (stock solution concentration: 10 mM) was diluted with DMSO in a dilution plate, with a maximum starting concentration of 10 μM and 7 concentration gradient points (3-fold dilution). 4 μl of each diluted solution was taken, added to a dish, and incubated for 16 h. • (3) Cells were harvested, added with a lysis buffer, and centrifuged at 12000 rpm/min for 20 min. The supernatant was collected. After quantification using a BCA quantification kit, 5× loading buffer was added to denature for 10 min. • (4) 10 μg of denatured protein was added to the SDS-PAGE gel. After electrophoresis and membrane transfer, the plate was blocked with 5% BSA for 1 h, incubate with the primary antibody at 4° C. overnight. After washing off the primary antibody, the secondary antibody was added, incubated at room temperature for 1 h, and washed off.
Imaging: the membranes were scanned with a two-color fluorescence imaging system.

[4] = female, Balb/c, mouse, plasma, iv 2 mg/kg
[5] = female, Balb/c, mouse, plasma, iv 2 mg/kg, read-out: AUC
[6] = female, Balb/c, mouse, plasma, po 10 mg/kg
[7] = female, Balb/c, mouse, plasma, po 10 mg/kg vs iv 2 mg/kg
[8] = female, Balb/c, mouse, plasma, po 10 mg/kg, read-out: AUC
[9] = female, Balb/c, mouse, plasma, po 10 mg/kg, read-out: Cmax

CCN1CCC(n2cc(-c3c[nH]c4ncc(-c5cnc(N6CCN(C(=O)c7ccc(N8CCC(=O)NC8=O)cc7)CC6)c(C)c5)nc34)cn2)CC1 [Compound C001]
IC50 (human HPK1 [1]): 5.2 nM

CCN1CCC(n2cc(-c3c[nH]c4ncc(-c5cnc(N6CCN(CC7CCN(C(=O)c8cccc(N9CCC(=O)NC9=O)c8)CC7)CC6)c(C)c5)nc34)cn2)CC1 [Compound C002]
IC50 (human HPK1 [1]): 2.6 nM

CCN1CCC(n2cc(-c3c[nH]c4ncc(-c5cnc(N6CCN(CC7CCN(C(=O)c8ccc(Cl)c(N9CCC(=O)NC9=O)c8)CC7)CC6)c(C)c5)nc34)cn2)CC1 [Compound C004]
IC50 (human HPK1 [1]): 1.6 nM

CCN1CCC(n2cc(-c3c[nH]c4ncc(-c5cnc(OCC(=O)N6CCC(c7ccc(NC8CCC(=O)NC8=O)cc7)CC6)c(C)c5)nc34)cn2)CC1 (centres unmarked) [Compound C007]
IC50 (human HPK1 [1]): 5.2 nM

CCN1CCC(n2cc(-c3c[nH]c4ncc(-c5cnc(OCC(=O)Nc6ccc(NC7CCC(=O)NC7=O)cc6)c(F)c5)nc34)cn2)CC1 (centres unmarked) [Compound C008]
IC50 (human HPK1 [1]): 3.5 nM

CCN1CCC(n2cc(-c3c[nH]c4ncc(-c5cnc(NCCNC(=O)c6cccc(N7CCC(=O)NC7=O)c6)c(C)c5)nc34)cn2)CC1 [Compound C009]
IC50 (human HPK1 [1]): 8.8 nM

CCN1CCC(n2cc(-c3c[nH]c4ncc(-c5cnc(N6CCN(CC7CN(C(=O)c8cccc(N9CCC(=O)NC9=O)c8)C7)CC6)c(C)c5)nc34)cn2)CC1 [Compound C011]
IC50 (human HPK1 [1]): 0.7 nM

CCN1CCC(n2cc(-c3c[nH]c4ncc(-c5cnc(N6CCN(CC7CN(c8cccc9c8C(=O)N(C8CCC(=O)NC8=O)C9=O)C7)CC6)c(C)c5)nc34)cn2)CC1 (centres unmarked) [Compound C012]
IC50 (human HPK1 [1]): 1.9 nM

CCN1CCC(n2cc(-c3c[nH]c4ncc(-c5cnc(OC6CCN(C(=O)c7cccc(N8CCC(=O)NC8=O)c7)CC6)c(C)c5)nc34)cn2)CC1 [Compound C014]
IC50 (human HPK1 [1]): 1.5 nM

CCN1CCC(n2cc(-c3c[nH]c4ncc(-c5cnc(OC6CN(C(=O)c7cccc(N8CCC(=O)NC8=O)c7)C6)c(C)c5)nc34)cn2)CC1 [Compound C015]
IC50 (human HPK1 [1]): 6.2 nM

CCN1CCC(n2cc(-c3c[nH]c4ncc(-c5cnc(OCCNC(=O)c6cccc(N7CCC(=O)NC7=O)c6)c(C)c5)nc34)cn2)CC1 [Compound C016]
IC50 (human HPK1 [1]): 15 nM

CCN1CCC(n2cc(-c3c[nH]c4ncc(-c5cnc(OC6CCN(C(=O)c7cccc(N8CCC(=O)NC8=O)c7)CC6)c(C)c5)nc34)cn2)CC1 [Compound C019]
IC50 (human HPK1 [1]): 2 nM

CCN1CCC(n2cc(-c3c[nH]c4ncc(-c5ccc(N6CCN(CC7CCN(C(=O)c8ccc(Cl)c(N9CCC(=O)NC9=O)c8)CC7)CC6)nc5)nc34)cn2)CC1 [Compound C020]
IC50 (human HPK1 [1]): 5.5 nM

CCN1CCC(n2cc(-c3c[nH]c4ncc(-c5ccc(OCCN6CCC(NC(=O)c7ccc(Cl)c(N8CCC(=O)NC8=O)c7)CC6)nc5)nc34)cn2)CC1 [Compound C023]
IC50 (human HPK1 [1]): 6.4 nM

CCN1CCC(n2cc(-c3c[nH]c4ncc(-c5ccc(N6CCN(C(=O)CCOCCNc7cccc8c7C(=O)N(C7CCC(=O)NC7=O)C8=O)CC6)nc5)nc34)cn2)CC1 (centres unmarked) [Compound C025]
IC50 (human HPK1 [1]): 8.8 nM

CCN1CCC(n2cc(-c3c[nH]c4ncc(-c5ccc(N6CCN(C(=O)CCCCCNc7cccc8c7C(=O)N(C7CCC(=O)NC7=O)C8=O)CC6)nc5)nc34)cn2)CC1 (centres unmarked) [Compound C026]
IC50 (human HPK1 [1]): 1.6 nM

CCN1CCC(n2cc(-c3c[nH]c4ncc(-c5ccc(N6CCN(C7CCC(NC(=O)c8ccc(Cl)c(N9CCC(=O)NC9=O)c8)CC7)CC6)nc5)nc34)cn2)CC1 (centres unmarked) [Compound C027]
IC50 (human HPK1 [1]): 0.9 nM

CCN1CCC(n2cc(-c3c[nH]c4ncc(-c5ccc(OCCNC6CCC(NC(=O)c7ccc(Cl)c(N8CCC(=O)NC8=O)c7)CC6)nc5)nc34)cn2)CC1 (centres unmarked) [Compound C028]
IC50 (human HPK1 [1]): 2.4 nM

CCN1CCC(n2cc(-c3c[nH]c4ncc(-c5ccc(N6CCN(C7CCC(NC(=O)c8ccc(Cl)c(N9CCC(=O)NC9=O)c8)CC7)CC6)cc5)nc34)cn2)CC1 (centres unmarked) [Compound C029]
IC50 (human HPK1 [1]): 1.6 nM

CCN1CCC(n2cc(-c3c[nH]c4ncc(-c5ccc(N6CCN(C7CC8(CCN(C(=O)c9ccc(Cl)c(N%10CCC(=O)NC%10=O)c9)CC8)C7)CC6)cc5)nc34)cn2)CC1 [Compound C030]
IC50 (human HPK1 [1]): 0.2 nM

CCN1CCC(n2cc(-c3c[nH]c4ncc(-c5ccc(OCCNC(=O)c6ccc(Cl)c(N7CCC(=O)NC7=O)c6)nc5)nc34)cn2)CC1 [Compound C033]
IC50 (human HPK1 [1]): 7.5 nM

CCN1CCC(n2cc(-c3c[nH]c4ncc(-c5ccc(OCCNC(=O)c6ccc(Cl)c(N7CCC(=O)NC7=O)c6)c(C)c5)nc34)cn2)CC1 [Compound C034]
IC50 (human HPK1 [1]): 1.2 nM

CCN1CCC(n2cc(-c3c[nH]c4ncc(-c5ccc(OCCNC(=O)c6ccc(Cl)c(N7CCC(=O)NC7=O)c6)cc5)nc34)cn2)CC1 [Compound C035]
IC50 (human HPK1 [1]): 2.5 nM

CCN1CCC(n2cc(-c3c[nH]c4ncc(-c5cnn(C6CCN(C7CCC(NC(=O)c8ccc(Cl)c(N9CCC(=O)NC9=O)c8)CC7)CC6)c5)nc34)cn2)CC1 (centres unmarked) [Compound C036]
IC50 (human HPK1 [1]): 3.7 nM

CCN1CCC(n2cc(-c3c[nH]c4ncc(-c5ccc(OCCCCNC(=O)c6ccc(Cl)c(N7CCC(=O)NC7=O)c6)nc5)nc34)cn2)CC1 [Compound C038]
IC50 (human HPK1 [1]): 21.7 nM

CCN1CCC(n2cc(-c3c[nH]c4ncc(-c5ccc(OCCCNC(=O)c6ccc(Cl)c(N7CCC(=O)NC7=O)c6)c(C)c5)nc34)cn2)CC1 [Compound C039]
IC50 (human HPK1 [1]): 1.4 nM

O=C1CCN(c2cc(C(=O)N3CCC(CC4CCN(c5ccc(-c6cnc7[nH]cc(-c8cnn(CC(F)F)c8)c7n6)cn5)CC4)CC3)ccc2Cl)C(=O)N1 [Compound C195]
clearance [2, 4]: 0.785 mL/min/kg
half-life [2, 4]: 2.41 h
AUC [2, 5]: 42500 ng·h/mL
half-life [2, 6]: 2.8 h
bioavailability [2, 7]: 20.7%
AUC [2, 8]: 44000 ng·h/mL
Cmax [2, 9]: 14300 ng/mL
Vz ([2]; iv 2 mg/kg): 164
DC50 (human HPK1 [3]): 18.7 nM
Dmax (human HPK1 [3]): 80.7%

O=C1CCN(c2cc(C(=O)N3CCC(CC4CCN(c5ccc(-c6cnc7[nH]cc(-c8cnn(CCF)c8)c7n6)cn5)CC4)CC3)ccc2Cl)C(=O)N1 [Compound C197]
clearance [2, 4]: 4.5 mL/min/kg
AUC ([2]; iv 2 mg/kg): 7397 ng·h/mL
Vz ([2]; iv 2 mg/kg): 917
t1/2 ([2]; iv 2 mg/kg): 2.35 h
AUC ([2]; po 10 mg/kg): 9202 ng·h/mL
Cmax ([2]; po 10 mg/kg): 4680 ng/mL
t1/2 ([2]; po 10 mg/kg): 3.18 h
F % ([2]; po 10 mg/kg vs iv 2 mg/kg): 25.1%
DC50 (human HPK1 [3]): 5.28 nM
Dmax (human HPK1 [3]): 77.5%

COCCn1cc(-c2c[nH]c3ncc(-c4ccc(N5CCC(CC6CCN(C(=O)c7ccc(Cl)c(N8CCC(=O)NC8=O)c7)CC6)CC5)nc4)nc23)cn1 [Compound C201]
clearance [2, 4]: 6.58 mL/min/kg
half-life [2, 4]: 2.16 h
AUC [2, 5]: 5050 ng·h/mL
half-life [2, 6]: 2.63 h
bioavailability [2, 7]: 34.2%
AUC [2, 8]: 8660 ng·h/mL
Cmax [2, 9]: 4500 ng/mL
Vz ([2]; iv 2 mg/kg): 1230
DC50 (human HPK1 [3]): 30.6 nM
Dmax (human HPK1 [3]): 76.1%
